Results: patent US20260055079A1, “PHTHALAZINONE COMPOUNDS AS PARP7 INHIBITORS” (AZKARRA THERAPEUTICS, INC., priority 2022, published 2026)
Where two headings read alike, the source gives them in different places.

Legend:
His-GST-PARP7 = His-GST-PARP7 (Homo sapiens (Human), UniProt Q7Z3E1); experiment: PARP7 biochemical assay; details: read-out: PARP7 IC50
PARP2 = PARP2 (Homo sapiens (Human), UniProt Q9UGN5); experiment: PARP2 biochemical assay
[1] = test system: NCI-H1373 (human lung adenocarcinoma) cells; experiment: Cell proliferation assay (CellTiter-Glo), NCI-H1373; assay type: cell-based; details: Homo sapiens, NCI-H1373, 144 h, read-out: NCI-H1373 GI50

Chain of His-GST-PARP7 (Q7Z3E1 whole entry): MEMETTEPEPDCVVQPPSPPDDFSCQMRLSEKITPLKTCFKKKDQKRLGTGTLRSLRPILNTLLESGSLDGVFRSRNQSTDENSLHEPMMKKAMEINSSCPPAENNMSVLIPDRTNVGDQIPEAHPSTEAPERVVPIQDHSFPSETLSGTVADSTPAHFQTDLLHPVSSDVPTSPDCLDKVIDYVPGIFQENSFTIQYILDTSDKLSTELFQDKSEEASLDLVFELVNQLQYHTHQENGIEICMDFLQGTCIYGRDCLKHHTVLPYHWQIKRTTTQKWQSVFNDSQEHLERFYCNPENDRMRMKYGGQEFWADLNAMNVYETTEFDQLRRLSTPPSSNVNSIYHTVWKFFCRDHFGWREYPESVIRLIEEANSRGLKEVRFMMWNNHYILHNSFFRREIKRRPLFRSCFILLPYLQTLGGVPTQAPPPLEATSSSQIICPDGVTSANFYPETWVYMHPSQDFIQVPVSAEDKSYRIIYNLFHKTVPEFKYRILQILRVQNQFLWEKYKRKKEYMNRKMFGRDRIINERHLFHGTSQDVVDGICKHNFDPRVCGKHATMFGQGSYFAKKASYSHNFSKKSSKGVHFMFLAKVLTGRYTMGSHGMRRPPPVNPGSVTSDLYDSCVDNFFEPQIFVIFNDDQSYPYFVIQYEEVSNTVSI
Chain of PARP2 (Q9UGN5 whole entry): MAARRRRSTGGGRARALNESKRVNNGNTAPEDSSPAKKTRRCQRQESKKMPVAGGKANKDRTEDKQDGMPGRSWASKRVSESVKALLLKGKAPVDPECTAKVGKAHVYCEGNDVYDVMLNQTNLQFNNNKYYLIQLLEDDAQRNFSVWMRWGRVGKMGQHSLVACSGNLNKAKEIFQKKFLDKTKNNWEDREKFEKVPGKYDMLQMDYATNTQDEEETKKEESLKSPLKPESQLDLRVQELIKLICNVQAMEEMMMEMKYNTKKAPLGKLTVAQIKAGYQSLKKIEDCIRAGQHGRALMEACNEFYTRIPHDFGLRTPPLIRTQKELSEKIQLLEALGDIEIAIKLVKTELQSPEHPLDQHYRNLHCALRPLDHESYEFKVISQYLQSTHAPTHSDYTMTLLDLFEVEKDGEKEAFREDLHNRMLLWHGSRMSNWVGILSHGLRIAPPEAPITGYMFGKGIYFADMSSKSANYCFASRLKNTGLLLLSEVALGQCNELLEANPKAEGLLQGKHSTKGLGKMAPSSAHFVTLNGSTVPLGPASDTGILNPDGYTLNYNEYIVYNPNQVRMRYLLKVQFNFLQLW

Compound	IC50 (His-GST-PARP7) [nM]	IC50 (PARP2; read-out: PARP2 IC50) [nM]	GI50 ([1]; 6 days, CellTiter-Glo) [nM]	IC50 (PARP2) [nM]	GI50 [1] [nM]
N#Cc1ccc(N2CCN(C(=O)c3cc(Cc4n[nH]c(=O)c5ccc(OC6CC6)cc45)ccc3F)CC2)nc1 [Example 13, 6-(4-(5-((7-Cyclopropoxy-4-oxo-3,4-dihydrophthalazin-1-yl)methyl)-2-fluorobenzoyl)piperazin-1-yl)nicotinonitrile]	< 50			100 to 500	100 to 1000
CNc1ccc2c(=O)[nH]nc(Cc3ccc(F)c(C(=O)N4CCN(c5ccc(C#N)cn5)CC4)c3)c2c1 [Example 16, 6-(4-(2-fluoro-5-((7-(methylamino)-4-oxo-3,4-dihydrophthalazin-1-yl)methyl)benzoyl)piperazin-1-yl)nicotinonitrile]	< 50	< 50			1000 to 5000
CC(F)(F)c1ccc2c(=O)[nH]nc(Cc3ccc(F)c(C(=O)N4CCN(c5ccc(C#N)cn5)CC4)c3)c2c1 [Example 36, 6-(4-(5-((7-(1,1-Difluoroethyl)-4-oxo-3,4-dihydrophthalazin-1-yl)methyl)-2-fluorobenzoyl)piperazin-1-yl)nicotinonitrile]	50 to 100	< 50	100 to 1000		
O=C(c1cc(Cc2n[nH]c(=O)c3ccc(C#CC4CC4)cc23)ccc1F)N1CCN(c2ncc(C(F)(F)F)cn2)CC1 [Example 47, 6-(Cyclopropylethynyl)-4-(4-fluoro-3-(4-(5-(trifluoromethyl)pyrimidin-2-yl)piperazine-1-carbonyl)benzyl)phthalazin-1(2H)-one]	100 to 500	500 to 2000			
CC#Cc1ccc2c(=O)[nH]nc(Cc3ccc(F)c(C(=O)N4CCN(c5ccc(C#N)cn5)CC4C)c3)c2c1 (stereo not shown) [Example 61, 6-(4-(2-Fluoro-5-((4-oxo-7-(prop-1-yn-1-yl)-3,4-dihydrophthalazin-1-yl)methyl)benzoyl)-3-methylpiperazin-1-yl)nicotinonitrile]	< 50	< 50			
CC#Cc1ccc2c(=O)[nH]nc(Cc3ccc(F)c(C(=O)N4C5CCC4CN(c4ccc(C#N)cn4)C5)c3)c2c1 [Example 62, 6-(8-(2-Fluoro-5-((4-oxo-7-(prop-1-yn-1-yl)-3,4-dihydrophthalazin-1-yl)methyl)benzoyl)-3,8-diazabicyclo[3.2.1]octan-3-yl)nicotinonitrile]	< 50			500 to 2000	
CC#Cc1cc(Cl)c2c(=O)[nH]nc(Cc3ccc(F)c(C(=O)N4CCN(c5ccc(C#N)cn5)CC4)c3)c2c1 [Example 85, 6-(4-(5-((5-chloro-4-oxo-7-(prop-1-yn-1-yl)-3,4-dihydrophthalazin-1-yl)methyl)-2-fluorobenzoyl)piperazin-1-yl)nicotinonitrile]	100 to 500	50 to 100	< 100		
CC#Cc1ccc2c(=O)[nH]nc(Cc3ccc(F)c(C(=O)NCCN(CC)c4ccc(C#N)cn4)c3)c2c1 [Example 197, N-(2-((5-cyanopyridin-2-yl)(ethyl)amino)ethyl)-2-fluoro-5-((4-oxo-7-(prop-1-yn-1-yl)-3,4-dihydrophthalazin-1-yl)methyl)benzamide]	< 50	> 2000			
CC#Cc1ccc2c(=O)[nH]nc(Cc3ccc(F)c(C(=O)N(C)CCN(CC)c4ccc(C#N)cn4)c3)c2c1 [Example 198, N-(2-((5-Cyanopyridin-2-yl)(ethyl)amino)ethyl)-2-fluoro-N-methyl-5-((4-oxo-7-(prop-1-yn-1-yl)-3,4-dihydrophthalazin-1-yl)methyl)benzamide]	< 50	> 2000			

Second part, led by results:

IC50 (His-GST-PARP7) [nM]	IC50 (PARP2; read-out: PARP2 IC50) [nM]	GI50 ([1]; 6 days, CellTiter-Glo) [nM]	Compound	IC50 (PARP2) [nM]	GI50 [1] [nM]
< 50	< 50	100 to 1000	N#Cc1ccc(N2CCN(C(=O)c3cc(Cc4n[nH]c(=O)c5ccc(NCC6CC6)cc45)ccc3F)CC2)nc1 [Example 20, 6-(4-(5-((7-(cyclopropylmethylamino)-4-oxo-3,4-dihydrophthalazin-1-yl)methyl)-2-fluorobenzoyl)piperazin-1-yl)nicotinonitrile]		
< 50	500 to 2000	> 5000	N#Cc1ccc(N2CCN(C(=O)c3cc(Cc4n[nH]c(=O)c5ccc(N6CC7(CC(O)C7)C6)cc45)ccc3F)CC2)nc1 [Example 23, 6-(4-(2-Fluoro-5-((7-(6-hydroxy-2-azaspiro[3.3]heptan-2-yl)-4-oxo-3,4-dihydrophthalazin-1-yl)methyl)benzoyl)piperazin-1-yl)nicotinonitrile]		
< 50	100 to 500	100 to 1000	N#Cc1ccc(N2CCN(C(=O)c3cc(Cc4n[nH]c(=O)c5ccc(OC(F)(F)F)cc45)ccc3F)CC2)nc1 [Example 30, 6-(4-(2-fluoro-5-((4-oxo-7-(trifluoromethoxy)-3,4-dihydrophthalazin-1-yl)methyl)benzoyl)piperazin-1-yl)nicotinonitrile]		
< 50	> 2000	100 to 1000	N#Cc1ccc(N2CCN(C(=O)c3cc(Cc4n[nH]c(=O)c5ccc(N6CC7(CCC7)C6)cc45)ccc3F)CC2)nc1 [Example 31, 6-(4-(2-Fluoro-5-((4-oxo-7-(2-azaspiro[3.3]heptan-2-yl)-3,4-dihydrophthalazin-1-yl)methyl)benzoyl)piperazin-1-yl)nicotinonitrile]		
< 50	500 to 2000	100 to 1000	N#Cc1ccc(N2CCN(C(=O)c3cc(Cc4n[nH]c(=O)c5ccc(N6CC(C(F)(F)F)C6)cc45)ccc3F)CC2)nc1 [Example 34, 6-(4-(2-Fluoro-5-((4-oxo-7-(3-(trifluoromethyl)azetidin-1-yl)-3,4-dihydrophthalazin-1-yl)methyl)benzoyl)piperazin-1-yl)nicotinonitrile]		
< 50	100 to 500		CN(C)CC#Cc1ccc2c(=O)[nH]nc(Cc3ccc(F)c(C(=O)N4CCN(c5ncc(C(F)(F)F)cn5)CC4)c3)c2c1 [Example 46, 6-(3-(Dimethylamino)prop-1-yn-1-yl)-4-(4-fluoro-3-(4-(5-(trifluoromethyl)pyrimidin-2-yl)piperazine-1-carbonyl)benzyl)phthalazin-1(2H)-one]		
100 to 500	100 to 500		O=C(c1cc(Cc2n[nH]c(=O)c3ccc(C#CC(F)(F)F)cc23)ccc1F)N1CCN(c2ncc(C(F)(F)F)cn2)CC1 [Example 49, 4-(4-Fluoro-3-(4-(5-(trifluoromethyl)pyrimidin-2-yl)piperazine-1-carbonyl)benzyl)-6-(3,3,3-trifluoroprop-1-yn-1-yl)phthalazin-1(2H)-one]		
< 50	100 to 500		CC#Cc1ccc2c(=O)[nH]nc(Cc3ccc(F)c(C(=O)N4CCN(c5ccc(C#N)cn5)C(C)C4)c3)c2c1 (stereo not shown) [Example 72, 6-(4-(2-Fluoro-5-((4-oxo-7-(prop-1-ynyl)-3,4-dihydrophthalazin-1-yl)methyl)benzoyl)-2-methylpiperazin-1-yl)nicotinonitrile]		
< 50	50 to 100	100 to 1000	CC#Cc1ccc2c(=O)[nH]nc(Cc3cc(F)c(F)c(C(=O)N4CCN(c5ccc(C#N)cn5)CC4)c3)c2c1 [Example 74, 6-(4-(2,3-Difluoro-5-((4-oxo-7-(prop-1-ynyl)-3,4-dihydrophthalazin-1-yl)methyl)benzoyl)piperazin-1-yl)nicotinonitrile]		
< 50	> 2000	100 to 1000	CC#Cc1ccc2c(=O)[nH]nc(C(C)N(C)CCC(=O)N3CCN(c4ncc(C(F)(F)F)cn4)CC3)c2c1 (stereo not shown) [Example 193, 4-(1-(methyl(3-oxo-3-(4-(5-(trifluoromethyl)pyrimidin-2-yl)piperazin-1-yl)propyl)amino)ethyl)-6-(prop-1-yn-1-yl)phthalazin-1(2H)-one]		
